# Experimental data published in patent publication US20250223281A1, “ANTIDIABETIC COMPOUNDS AND COMPOSITIONS” (REZUBIO PHARMACEUTICALS CO., LTD, priority 2022, published 2025).
# Target: T1, GPR40 (Homo sapiens, UniProt O14842)
# T1 construct: expressed in transfected cells; host or cells: HEK293 cells stably expressing GPR40 (Hygromycin selection)
# Test: IP1 accumulation assay in HEK293 cells stably expressing GPR40
# Type: cell-based
# Summary of the method: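 HEK293 cells stably expressing human GPR40 were incubated with compounds (10-point, 3-fold dilution series) for 2 h at 37 °C, then IP1 was detected by HTRF (665/615 nm ratio). Effect was normalised to DMSO blank and AMG-1638 as 100%, and EC50 was derived from dose curves.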
# [1] = IP1 accumulation, HEK293 cells stably expressing GPR40, 2 hours at 37° C., % effect relative to AMG-1638, table of Biological Example 1
# [2] = Table A-8 (additional examples), obtained by methods of Biological Example 1
# [3] = Tables A-1a to A-7b (structure-property relationship), obtained by methods of Biological Example 1
# T1 sequence (O14842 whole entry): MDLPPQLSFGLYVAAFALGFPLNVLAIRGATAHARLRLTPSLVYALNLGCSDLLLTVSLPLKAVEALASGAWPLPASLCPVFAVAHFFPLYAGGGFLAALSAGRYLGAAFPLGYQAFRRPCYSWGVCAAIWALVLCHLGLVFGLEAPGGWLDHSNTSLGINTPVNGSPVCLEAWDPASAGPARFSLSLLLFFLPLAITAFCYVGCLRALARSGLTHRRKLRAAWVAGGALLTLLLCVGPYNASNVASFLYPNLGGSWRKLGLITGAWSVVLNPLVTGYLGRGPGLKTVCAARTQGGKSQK
SMILES,EC50 [1] [nM],EC50 [2] [nM],EC50 [3] [nM]
COc1ccc(F)c(-n2nnc(COc3cccc([C@@H](CC(=O)O)C4CC4)c3)c2CC(C)(C)Cn2cc(CCCCCCCCCCCCCCCC(=O)NCC[N+](C)(CCC(=O)NCCN)CCC(=O)NCCN)nn2)c1 [Example 181],16.1,,
COc1ccc(F)c(-n2nnc(COc3cccc([C@@H](CC(=O)O)C4CC4)c3)c2CC(C)(C)Cn2cc(COCCOCCOCCOCCOCC(=O)NCC[N+](C)(CCC(=O)NCCN)CCC(=O)NCCN)nn2)c1 [Example 182],> 10000,,
COc1ccc(F)c(-c2ccc(COc3cccc([C@@H](CC(=O)O)C4CC4)c3)cc2CC(C)(C)Cn2cc(CCCCCCCCCC(=O)NCCN(CCC(=O)NCCN)CCC(=O)NCCN)nn2)c1 [Example 191],204,209,204
COc1ccc(F)c(-c2ccc(COc3cccc([C@@H](CC(=O)O)C4CC4)c3)cc2CC(C)(C)Cn2cc(CCCCCCCCCC(=O)NCC[N+](C)(CCC(=O)NCCN)CCC(=O)NCCN)nn2)c1 [Example 192],250,251,250
C[C@H](C(=O)O)[C@H](c1ccc2c(c1)O[C@@H](C1CCN(Cc3cc(-n4cc(CCCCCCCCCC(=O)NCCN(CCC(=O)NCCN)CCC(=O)NCCN)nn4)ccc3OC(F)(F)F)CC1)CC2)C1CC1 [Example 193],413,413,413
C[C@H](C(=O)O)[C@H](c1ccc2c(c1)O[C@@H](C1CCN(Cc3cc(-n4cc(CCCCCCCCCC(=O)NCC[N+](C)(CCC(=O)NCCN)CCC(=O)NCCN)nn4)ccc3OC(F)(F)F)CC1)CC2)C1CC1 [Example 194],114,94,114
COc1ccc(C(=O)N(CC(C)(C)CCn2cc(CCCCC(=O)NCCN(CCC(=O)NCCN)CCC(=O)NCCN)nn2)c2cccc(C)n2)c(N2CCC(COc3cc([C@@H](CC(=O)O)C4CC4)ccn3)CC2)c1 [Example 195],> 10000,,
COc1ccc(C(=O)N(CC(C)(C)CCn2cc(CCCCCCC(=O)NCCN(CCC(=O)NCCN)CCC(=O)NCCN)nn2)c2cccc(C)n2)c(N2CCC(COc3cc([C@@H](CC(=O)O)C4CC4)ccn3)CC2)c1 [Example 196],9870,,9870

# Molecules with a lower EC50 [1], results first:
EC50 [1] [nM],EC50 [2] [nM],EC50 [3] [nM],SMILES
0.05,0.05,0.05,C[C@H](C(=O)O)[C@H](c1ccc2c(c1)O[C@@H](C1CCN(Cc3cc(-n4cc(CCCCCCCCCCCCCCCC(=O)NCCN(CCC(=O)NCCN)CCC(=O)NCCN)nn4)ccc3OC(F)(F)F)CC1)CC2)C1CC1 [Example 185]
0.03,0.05,0.05,C[C@H](C(=O)O)[C@H](c1ccc2c(c1)O[C@@H](C1CCN(Cc3cc(-n4cc(CCCCCCCCCCCCCCCC(=O)NCC[N+](C)(CCC(=O)NCCN)CCC(=O)NCCN)nn4)ccc3OC(F)(F)F)CC1)CC2)C1CC1 [Example 186]
1.34,1.34,1.34,COc1ccc(F)c(-c2ccc(COc3cccc([C@@H](CC(=O)O)C4CC4)c3)cc2CC(C)(C)Cn2cc(CCCCCCCCCCCCCCCC(=O)NCCN(CCC(=O)NCCN)CCC(=O)NCCN)nn2)c1 [Example 187]
1.53,1.53,1.53,COc1ccc(F)c(-c2ccc(COc3cccc([C@@H](CC(=O)O)C4CC4)c3)cc2CC(C)(C)Cn2cc(CCCCCCCCCCCCCCCC(=O)NCC[N+](C)(CCC(=O)NCCN)CCC(=O)NCCN)nn2)c1 [Example 188]
0.05,,0.05,COc1ccc(C(=O)N(CC(C)(C)CCCCCCn2cc(CCCCCCCCCCCCCC(=O)NCCN(CCC(=O)NCCN)CCC(=O)NCCN)nn2)c2cccc(C)n2)c(N2CCC(COc3cc([C@@H](CC(=O)O)C4CC4)ccn3)CC2)c1 [Example 189]
0.05,,0.05,COc1ccc(C(=O)N(CC(C)(C)CCCCCCn2cc(CCCCCCCCCCCCCC(=O)NCC[N+](C)(CCC(=O)NCCN)CCC(=O)NCCN)nn2)c2cccc(C)n2)c(N2CCC(COc3cc([C@@H](CC(=O)O)C4CC4)ccn3)CC2)c1 [Example 190]
